From patent US11542240B2, “STK19 inhibitors for treatment of cancer” (TRUSTEES OF BOSTON UNIVERSITY, priority 2018, dated 2023)
Where two headings read alike, the source gives them in different places.

Columns and labels:
Test in all cases: biochemical
Format in all cases: binding
[1] = target: panel of 468 diverse kinases (Homo sapiens, UniProt Q5S007, G2019S); conditions: LRRK2(G2019S); 1000 nM; read-out: Percent Control
[2] = target: panel of 468 diverse kinases (Homo sapiens, UniProt P04626); conditions: ERBB2; 1000 nM; read-out: Percent Control
[3] = target: panel of 468 diverse kinases (Homo sapiens, UniProt P29322); conditions: EPHA8; 1000 nM; read-out: Percent Control
[4] = target: panel of 468 diverse kinases (Homo sapiens, UniProt P00519, E255K); conditions: ABL1(E255K)-phosphorylated; 1000 nM; read-out: Percent Control
[5] = target: panel of 468 diverse kinases (Homo sapiens, UniProt Q9UM73, L1196M); conditions: ALK(L1196M); 1000 nM; read-out: Percent Control
[6] = target: panel of 468 diverse kinases (Homo sapiens, UniProt P51957); conditions: NEK4; 1000 nM; read-out: Percent Control
[7] = target: panel of 468 diverse kinases (Homo sapiens, UniProt Q6XUX3); conditions: RIPK5; 1000 nM; read-out: Percent Control
[8] = target: panel of 468 diverse kinases (Homo sapiens, UniProt P53779); conditions: JNK3; 1000 nM; read-out: Percent Control
[9] = target: panel of 468 diverse kinases (Homo sapiens, UniProt Q9HBY8); conditions: SGK2; 1000 nM; read-out: Percent Control
[10] = target: panel of 468 diverse kinases (Homo sapiens, UniProt P51617); conditions: IRAK1; 1000 nM; read-out: Percent Control
[11] = target: panel of 468 diverse kinases (Homo sapiens, UniProt P00533, DEL746-750); conditions: EGFR(E746-A750del); 1000 nM; read-out: Percent Control
[12] = target: panel of 468 diverse kinases (Homo sapiens, UniProt P49840); conditions: GSK3A; 1000 nM; read-out: Percent Control
[13] = target: panel of 468 diverse kinases (Homo sapiens, UniProt P15735); conditions: PHKG2; 1000 nM; read-out: Percent Control
[14] = target: panel of 468 diverse kinases (Homo sapiens, UniProt P52333); conditions: JAK3(JH1domain-catalytic); 1000 nM; read-out: Percent Control
[15] = target: panel of 468 diverse kinases (Homo sapiens, UniProt P42336, C420R); conditions: PIK3CA(C420R); 1000 nM; read-out: Percent Control
[16] = target: panel of 468 diverse kinases (Homo sapiens, UniProt Q15831); conditions: LKB1; 1000 nM; read-out: Percent Control
[17] = target: panel of 468 diverse kinases (Homo sapiens, UniProt O43293); conditions: DAPK3; 1000 nM; read-out: Percent Control
[18] = target: panel of 468 diverse kinases (Homo sapiens, UniProt Q15569); conditions: TESK1; 1000 nM; read-out: Percent Control
[19] = target: panel of 468 diverse kinases (Homo sapiens, UniProt Q13188); conditions: MST2; 1000 nM; read-out: Percent Control
[20] = target: panel of 468 diverse kinases (Homo sapiens, UniProt P07947); conditions: YES; 1000 nM; read-out: Percent Control
[21] = target: panel of 468 diverse kinases (Homo sapiens, UniProt Q9H0K1); conditions: SIK2; 1000 nM; read-out: Percent Control
[22] = target: panel of 468 diverse kinases (Homo sapiens, UniProt Q9H4A3); conditions: WNK1; 1000 nM; read-out: Percent Control
[23] = target: panel of 468 diverse kinases (Homo sapiens, UniProt P53350); conditions: PLK1; 1000 nM; read-out: Percent Control
[24] = target: panel of 468 diverse kinases (Homo sapiens, UniProt Q15349); conditions: 1000 nM, read-out: Percent Control
[25] = target: panel of 468 diverse kinases (Homo sapiens, UniProt O00444); conditions: PLK4; 1000 nM; read-out: Percent Control
[26] = target: panel of 468 diverse kinases (Homo sapiens, UniProt Q5VT25); conditions: MRCKA; 1000 nM; read-out: Percent Control
[27] = target: panel of 468 diverse kinases (Homo sapiens, UniProt Q8TD08); conditions: ERK8; 1000 nM; read-out: Percent Control
[28] = target: panel of 468 diverse kinases (Homo sapiens, UniProt Q04912); conditions: MST1R; 1000 nM; read-out: Percent Control
[29] = target: panel of 468 diverse kinases (Homo sapiens, UniProt P36896); conditions: ACVR1B; 1000 nM; read-out: Percent Control
[30] = target: panel of 468 diverse kinases (Homo sapiens, UniProt O75385); conditions: ULK1; 1000 nM; read-out: Percent Control

Sequence of panel of 468 diverse kinases (Homo sapiens, UniProt Q04912) (Q04912 25-304 limits assumed): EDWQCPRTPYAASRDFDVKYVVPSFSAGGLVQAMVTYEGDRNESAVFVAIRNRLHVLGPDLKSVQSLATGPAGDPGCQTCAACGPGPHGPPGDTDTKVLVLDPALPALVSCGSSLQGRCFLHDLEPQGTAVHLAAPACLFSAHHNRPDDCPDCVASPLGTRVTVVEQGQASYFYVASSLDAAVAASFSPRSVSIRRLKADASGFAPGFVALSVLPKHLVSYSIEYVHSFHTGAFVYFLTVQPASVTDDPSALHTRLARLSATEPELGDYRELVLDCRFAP
Sequence of panel of 468 diverse kinases (Homo sapiens, UniProt Q04912) (Q04912 310-1400 limits assumed): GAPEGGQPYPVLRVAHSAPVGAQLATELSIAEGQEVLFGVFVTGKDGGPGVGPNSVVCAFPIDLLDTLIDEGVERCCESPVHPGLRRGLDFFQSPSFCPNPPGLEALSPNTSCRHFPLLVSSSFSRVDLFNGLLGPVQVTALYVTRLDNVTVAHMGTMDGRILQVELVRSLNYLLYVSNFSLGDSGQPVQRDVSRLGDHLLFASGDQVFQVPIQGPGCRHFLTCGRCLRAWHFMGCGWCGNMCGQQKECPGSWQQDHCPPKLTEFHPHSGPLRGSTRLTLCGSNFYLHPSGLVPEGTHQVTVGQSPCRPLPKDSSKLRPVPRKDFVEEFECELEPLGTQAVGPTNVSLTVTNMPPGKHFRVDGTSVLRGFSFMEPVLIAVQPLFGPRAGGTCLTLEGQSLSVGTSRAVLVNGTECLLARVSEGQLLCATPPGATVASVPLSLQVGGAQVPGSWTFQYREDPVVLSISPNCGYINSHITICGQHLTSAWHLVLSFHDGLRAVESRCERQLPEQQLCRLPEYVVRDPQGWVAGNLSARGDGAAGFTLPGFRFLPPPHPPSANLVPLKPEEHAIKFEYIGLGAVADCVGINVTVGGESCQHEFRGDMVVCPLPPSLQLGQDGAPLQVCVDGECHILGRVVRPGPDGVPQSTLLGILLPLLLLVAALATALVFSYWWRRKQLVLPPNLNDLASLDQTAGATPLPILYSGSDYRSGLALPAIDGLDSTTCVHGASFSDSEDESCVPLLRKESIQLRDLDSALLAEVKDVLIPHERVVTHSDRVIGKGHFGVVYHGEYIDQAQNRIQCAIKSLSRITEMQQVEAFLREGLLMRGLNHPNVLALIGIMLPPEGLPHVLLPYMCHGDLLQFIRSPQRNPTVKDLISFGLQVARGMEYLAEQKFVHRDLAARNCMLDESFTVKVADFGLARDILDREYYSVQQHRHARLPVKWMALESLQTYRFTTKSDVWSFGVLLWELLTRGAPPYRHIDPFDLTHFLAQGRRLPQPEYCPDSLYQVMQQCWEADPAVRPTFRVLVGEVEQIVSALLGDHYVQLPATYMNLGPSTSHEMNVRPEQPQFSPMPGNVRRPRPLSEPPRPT
Sequence of panel of 468 diverse kinases (Homo sapiens, UniProt Q9UM73, L1196M) (Q9UM73 19-1620 L1196M limits assumed): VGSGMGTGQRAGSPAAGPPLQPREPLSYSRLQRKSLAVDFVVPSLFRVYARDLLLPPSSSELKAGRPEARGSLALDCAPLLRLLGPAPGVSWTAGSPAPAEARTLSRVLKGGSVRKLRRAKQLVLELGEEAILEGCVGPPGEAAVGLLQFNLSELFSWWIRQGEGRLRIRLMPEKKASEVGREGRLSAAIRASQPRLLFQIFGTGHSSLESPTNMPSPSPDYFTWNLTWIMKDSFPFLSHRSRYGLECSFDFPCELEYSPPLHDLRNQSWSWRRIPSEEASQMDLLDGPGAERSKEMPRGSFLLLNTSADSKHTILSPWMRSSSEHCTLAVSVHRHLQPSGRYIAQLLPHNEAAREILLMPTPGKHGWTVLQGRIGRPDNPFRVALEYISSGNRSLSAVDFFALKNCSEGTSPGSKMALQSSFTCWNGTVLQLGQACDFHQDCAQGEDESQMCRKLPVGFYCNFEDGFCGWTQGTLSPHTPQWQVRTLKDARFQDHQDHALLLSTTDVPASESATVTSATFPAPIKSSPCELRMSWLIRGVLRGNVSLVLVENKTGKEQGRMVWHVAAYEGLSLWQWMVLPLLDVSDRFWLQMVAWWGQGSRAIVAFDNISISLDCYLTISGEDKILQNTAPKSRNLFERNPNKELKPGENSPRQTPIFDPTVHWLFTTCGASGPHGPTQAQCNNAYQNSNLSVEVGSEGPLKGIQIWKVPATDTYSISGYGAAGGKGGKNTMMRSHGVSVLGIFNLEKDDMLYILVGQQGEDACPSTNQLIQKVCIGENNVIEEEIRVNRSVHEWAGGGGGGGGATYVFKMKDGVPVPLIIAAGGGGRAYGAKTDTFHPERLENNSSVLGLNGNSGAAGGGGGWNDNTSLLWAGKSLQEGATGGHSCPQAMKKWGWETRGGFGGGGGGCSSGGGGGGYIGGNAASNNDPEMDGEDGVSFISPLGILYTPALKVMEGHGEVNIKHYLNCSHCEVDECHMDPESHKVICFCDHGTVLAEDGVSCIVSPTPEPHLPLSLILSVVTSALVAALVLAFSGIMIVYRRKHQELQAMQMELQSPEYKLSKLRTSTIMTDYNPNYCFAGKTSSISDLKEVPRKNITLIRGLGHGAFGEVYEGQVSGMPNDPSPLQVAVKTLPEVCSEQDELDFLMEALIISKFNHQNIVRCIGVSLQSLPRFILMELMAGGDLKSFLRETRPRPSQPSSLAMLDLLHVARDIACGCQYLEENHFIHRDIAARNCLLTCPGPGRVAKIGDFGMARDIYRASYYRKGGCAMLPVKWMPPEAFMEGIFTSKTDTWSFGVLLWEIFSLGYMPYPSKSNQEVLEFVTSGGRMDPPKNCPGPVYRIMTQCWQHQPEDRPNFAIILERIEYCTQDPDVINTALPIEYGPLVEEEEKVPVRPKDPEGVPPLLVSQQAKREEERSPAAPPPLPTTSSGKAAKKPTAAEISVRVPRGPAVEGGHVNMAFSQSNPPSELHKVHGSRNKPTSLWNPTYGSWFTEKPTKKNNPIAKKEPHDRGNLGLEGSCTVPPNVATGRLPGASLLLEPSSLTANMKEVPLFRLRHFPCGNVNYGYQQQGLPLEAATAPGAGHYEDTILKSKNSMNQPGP
Sequence of panel of 468 diverse kinases (Homo sapiens, UniProt P04626) (P04626 23-1255 limits assumed): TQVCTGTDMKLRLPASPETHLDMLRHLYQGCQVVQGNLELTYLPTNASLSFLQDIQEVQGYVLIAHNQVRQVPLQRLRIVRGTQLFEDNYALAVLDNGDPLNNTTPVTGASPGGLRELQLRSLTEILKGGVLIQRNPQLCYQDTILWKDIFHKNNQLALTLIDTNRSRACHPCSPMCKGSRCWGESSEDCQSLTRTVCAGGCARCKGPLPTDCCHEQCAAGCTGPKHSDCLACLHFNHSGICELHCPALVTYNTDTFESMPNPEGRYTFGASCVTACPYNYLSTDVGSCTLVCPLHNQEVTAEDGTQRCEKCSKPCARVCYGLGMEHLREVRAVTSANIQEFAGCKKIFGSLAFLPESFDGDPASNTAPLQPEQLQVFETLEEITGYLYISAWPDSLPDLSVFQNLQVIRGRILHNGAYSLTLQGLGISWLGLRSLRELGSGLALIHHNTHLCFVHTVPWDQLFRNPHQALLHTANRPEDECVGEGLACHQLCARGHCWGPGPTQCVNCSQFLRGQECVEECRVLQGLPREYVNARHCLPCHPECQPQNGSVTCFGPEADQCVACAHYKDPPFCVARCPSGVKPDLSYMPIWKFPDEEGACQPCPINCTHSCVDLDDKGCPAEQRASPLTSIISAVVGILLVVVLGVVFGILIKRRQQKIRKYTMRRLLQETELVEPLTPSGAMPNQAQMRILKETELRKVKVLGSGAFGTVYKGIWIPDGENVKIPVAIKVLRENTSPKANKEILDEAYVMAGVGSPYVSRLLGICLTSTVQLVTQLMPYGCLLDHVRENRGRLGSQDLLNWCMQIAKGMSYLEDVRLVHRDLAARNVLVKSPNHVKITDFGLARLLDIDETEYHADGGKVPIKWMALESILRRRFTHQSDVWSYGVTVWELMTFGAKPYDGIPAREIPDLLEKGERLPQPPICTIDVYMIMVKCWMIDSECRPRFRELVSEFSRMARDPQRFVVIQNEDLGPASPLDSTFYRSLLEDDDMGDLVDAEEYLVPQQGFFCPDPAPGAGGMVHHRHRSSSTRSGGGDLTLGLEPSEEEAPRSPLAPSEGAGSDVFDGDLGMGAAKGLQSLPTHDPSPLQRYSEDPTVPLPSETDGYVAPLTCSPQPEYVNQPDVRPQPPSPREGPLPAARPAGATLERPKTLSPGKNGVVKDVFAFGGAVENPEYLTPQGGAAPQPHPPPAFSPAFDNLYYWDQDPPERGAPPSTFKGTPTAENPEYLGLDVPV
Sequence of panel of 468 diverse kinases (Homo sapiens, UniProt P49840) (P49840 2-483 limits assumed): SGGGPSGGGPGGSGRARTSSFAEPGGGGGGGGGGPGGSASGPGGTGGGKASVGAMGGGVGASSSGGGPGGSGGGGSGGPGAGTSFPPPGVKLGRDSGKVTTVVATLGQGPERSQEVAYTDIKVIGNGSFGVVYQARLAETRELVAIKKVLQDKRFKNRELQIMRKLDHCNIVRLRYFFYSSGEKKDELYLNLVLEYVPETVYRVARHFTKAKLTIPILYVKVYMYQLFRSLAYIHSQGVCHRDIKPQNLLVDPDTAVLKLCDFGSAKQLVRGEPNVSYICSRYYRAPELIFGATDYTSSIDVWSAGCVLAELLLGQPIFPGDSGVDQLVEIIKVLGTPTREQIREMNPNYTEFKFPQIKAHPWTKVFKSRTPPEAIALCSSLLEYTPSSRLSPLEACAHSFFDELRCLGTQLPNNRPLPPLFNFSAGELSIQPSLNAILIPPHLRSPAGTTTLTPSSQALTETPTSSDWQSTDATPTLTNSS

SMILES: COc1cc2nc(NC3CC3)nc(NC3CCN(C(C)C)CC3)c2cc1OC [Formula IV]
- remaining activity at 1 µM [1]: 54%
- remaining activity at 1 µM [2]: 100%
- remaining activity at 1 µM [3]: 93%
- remaining activity at 1 µM [4]: 89%
- remaining activity at 1 µM [5]: 78%
- remaining activity at 1 µM [6]: 69%
- remaining activity at 1 µM [7]: 54%
- remaining activity at 1 µM [8]: 100%
- remaining activity at 1 µM [9]: 64%
- remaining activity at 1 µM [10]: 80%
- remaining activity at 1 µM [11]: 63%
- remaining activity at 1 µM [12]: 95%
- remaining activity at 1 µM [13]: 83%
- remaining activity at 1 µM [14]: 70%
- remaining activity at 1 µM [15]: 91%
- remaining activity at 1 µM [16]: 97%
- remaining activity at 1 µM [17]: 89%
- remaining activity at 1 µM [18]: 100%
- remaining activity at 1 µM [19]: 100%
- remaining activity at 1 µM [20]: 100%
- remaining activity at 1 µM [21]: 81%
- remaining activity at 1 µM [22]: 59%
- remaining activity at 1 µM [23]: 70%
- remaining activity at 1 µM ([24]; RSK3(Kin.Dom.1-N-terminal)): 93%
- remaining activity at 1 µM ([24]; RSK3(Kin.Dom.2-C-terminal)): 81%
- remaining activity at 1 µM [25]: 58%
- remaining activity at 1 µM [26]: 100%
- remaining activity at 1 µM [27]: 83%
- remaining activity at 1 µM [28]: 100%
- remaining activity at 1 µM [29]: 94%
- remaining activity at 1 µM [30]: 51%
